{"source": "patent US20140314857A1", "about": "“FORMULATIONS FOR ENHANCED BIOAVAILABILITY OF ZANAMIVIR” (priority 2012, published 2014)", "assay": "Intraduodenal bioavailability of zanamivir from glycerol and PBS formulations, enhancer pre-dose (Example 6)", "settings": "for half-life: t1/2, ID 1.5 mg/animal", "from_the_text": "Male Sprague-Dawley rats (Hilltop Labs), 3 animals per treatment group, 250-350 grams in weight, were fitted with a jugular vein cannula (JVC). Animals intended for intraduodenal dosing were also fitted with one or more intraduodenal cannula (IDC) and those intended for intravenous dosing were fitted with a second JVC. Food was withheld from the animals for a minimum of twelve hours prior to test article administration and was returned approximately four hours post-dose. Water was supplied ad libitum.\nIntraduodenal doses composed of 1.5 mg of zanamivir and varying amounts of an enhancer (glycerol or Capmul MCM L8) were injected directly into the duodenum via the IDC. Intravenous dosing was conducted by the injection of 1.5 mg of zanamivir in 200 μL of PBS through a JVC. For some experiments, the absorption enhancer was administered intraduodenally 2 hr prior to administering 1.5 mg of zanamivir in PBS through a second IDC. Each intraduodenal dose was followed with the introduction of a small air bubble (˜10 μL) in the cannula followed by a flush of 125 μL of PBS to ensure the dose was given in full. The volume of PBS used for cannula flush was consistent across the treatment groups. The cannula was tied to prevent the PBS remaining in the cannula from entering the duodenum.\nBlood samples collected via the JVC, approximately 400 μL each, were obtained at 2 min, 5 min, 15 min, 30 min, 60 min, 90 min, and 120 min, with sodium heparin used as an anti-coagulant. Each sample was placed into a chilled tube containing the anticoagulant and kept on ice until centrifugation at 4° C., 3,000×g, for 5 min. The plasma supernatants were stored at −70° C. until LC-MS analysis.\nDosing solution samples were assayed by LC-MS/MS using electrospray ionization. The chromatographic system consisted of Perkin Elmer series 200 micropumps and autosampler equipped with a Waters Atlantic® HILIC Silica 3 μM, 2.1×50 mm column. The mass spectrometer was a PE Sciex API 4000 with electrospray interface in multiple reaction monitoring mode. […] Stock solutions (1 mg/mL zanamivir) were prepared in water. Standards (eight concentrations) were prepared in the appropriate matched matrix (HBSSg or Sprague-Dawley rat plasma containing sodium heparin) and diluted 50-fold with methanol. Experimental samples were treated identically.\nStandards and samples were prepared in Sprague Dawley rat plasma containing sodium heparin as an anticoagulant. An eight-point calibration curve was prepared at concentrations of 1000, 750, 500, 250, 100, 50, 25, and 10 ng/mL by serial dilution. Standard samples were treated identically to the study samples.\nPlasma samples were extracted by protein precipitation in methanol.\nIn this example, the bioavailability of Zanamivir was evaluated after intraduodenal doses in male Sprague-Dawley rats. The test compound was dosed at 1.5 mg/animal through intraduodenal routes from glycerol and PBS formulations. Plasma levels were determined by LC-MS/MS analysis. Pharmacokinetic parameters were estimated by a non-compartmental model using WinNonlin v5.2.1 software.", "note": "Where “and” joins values, the source holds several entries; their conditions need not be identical. Equal values may be shown once."}
{"smiles": "CC(=O)NC1C(NC(=N)N)C=C(C(=O)O)OC1C(O)C(O)CO", "note": "(centres unmarked) [Zanamivir, 5-acetamido-4-guanidino-6-(1,2,3-trihydroxypropyl)-5,6-dihydro-4H-pyran-2-carboxylic acid]", "values": [{"measurement": "Plasma concentration", "setting": "ID 1.5 mg/animal, 50 µL PBS, 50 µL blank Capmul MCM L8 -2 hr, 0.25 hr, individual rats", "value": "27.1 ng/mL and 28.1 ng/mL"}, {"measurement": "Plasma concentration", "setting": "ID 1.5 mg/animal, 50 µL PBS, 50 µL blank Capmul MCM L8 -2 hr, 0.5 hr, individual rats", "value": "34.5 ng/mL and 42.9 ng/mL"}, {"measurement": "Plasma concentration", "setting": "ID 1.5 mg/animal, 50 µL PBS, 50 µL blank Capmul MCM L8 -2 hr, 0.83 hr, individual rats", "value": "18.1 ng/mL and 8.00 ng/mL and 6.27 ng/mL"}, {"measurement": "Plasma concentration", "setting": "ID 1.5 mg/animal, 50 µL PBS, 50 µL blank Capmul MCM L8 -2 hr, 1.0 hr, individual rats", "value": "33.1 ng/mL and 32.1 ng/mL"}, {"measurement": "Plasma concentration", "setting": "ID 1.5 mg/animal, 50 µL PBS, 50 µL blank Capmul MCM L8 -2 hr, 1.5 hr, individual rats", "value": "61.5 ng/mL and 23.2 ng/mL and 31.4 ng/mL"}, {"measurement": "Plasma concentration", "setting": "ID 1.5 mg/animal, 50 µL PBS, 50 µL blank Capmul MCM L8 -2 hr, 2.0 hr, individual rats", "value": "68.3 ng/mL and 14.8 ng/mL and 18.2 ng/mL"}, {"measurement": "Tmax", "setting": "ID 1.5 mg/animal, 50 µL PBS, 50 µL blank Capmul MCM L8 -2 hr, individual rats", "value": 2.00, "unit": "h"}, {"measurement": "Plasma concentration", "setting": "ID 1.5 mg/animal, 50 µL PBS, 150 µL blank glycerol -2 hr, 0.25 hr, individual rats", "value": "65.2 ng/mL and 28.9 ng/mL and 61.2 ng/mL"}, {"measurement": "Plasma concentration", "setting": "ID 1.5 mg/animal, 50 µL PBS, 150 µL blank glycerol -2 hr, 0.5 hr, individual rats", "value": "40.1 ng/mL and 72.3 ng/mL"}, {"measurement": "Plasma concentration", "setting": "ID 1.5 mg/animal, 50 µL PBS, 150 µL blank glycerol -2 hr, 0.83 hr, individual rats", "value": "22.7 ng/mL and 1.47 ng/mL and 48.9 ng/mL"}, {"measurement": "Plasma concentration", "setting": "ID 1.5 mg/animal, 50 µL PBS, 150 µL blank glycerol -2 hr, 1.0 hr, individual rats", "value": "39.8 ng/mL and 38.4 ng/mL"}, {"measurement": "Plasma concentration", "setting": "ID 1.5 mg/animal, 50 µL PBS, 150 µL blank glycerol -2 hr, 1.5 hr, individual rats", "value": "45.8 ng/mL and 34.5 ng/mL"}, {"measurement": "Plasma concentration", "setting": "ID 1.5 mg/animal, 50 µL PBS, 150 µL blank glycerol -2 hr, 2.0 hr, individual rats, BLOQ = below 10 ng/mL", "value": 54.8, "unit": "ng/mL"}, {"measurement": "Tmax", "setting": "ID 1.5 mg/animal, 50 µL PBS, 150 µL blank glycerol -2 hr, individual rats", "value": 1.50, "unit": "h"}, {"measurement": "Plasma concentration", "setting": "ID 1.5 mg/animal, 100 µL Glycerol, 0.25 hr, individual rats", "value": "76.4 ng/mL and 40.7 ng/mL"}, {"measurement": "Plasma concentration", "setting": "ID 1.5 mg/animal, 100 µL Glycerol, 0.5 hr, individual rats", "value": "59.2 ng/mL and 35.6 ng/mL"}, {"measurement": "Plasma concentration", "setting": "ID 1.5 mg/animal, 100 µL Glycerol, 0.83 hr, individual rats", "value": "55.4 ng/mL and 78.4 ng/mL and 37.5 ng/mL"}, {"measurement": "Plasma concentration", "setting": "ID 1.5 mg/animal, 100 µL Glycerol, 1.0 hr, individual rats", "value": "55.3 ng/mL and 39.4 ng/mL"}, {"measurement": "Plasma concentration", "setting": "ID 1.5 mg/animal, 100 µL Glycerol, 1.5 hr, individual rats", "value": "29.6 ng/mL and 47.6 ng/mL and 63.5 ng/mL"}, {"measurement": "Plasma concentration", "setting": "ID 1.5 mg/animal, 100 µL Glycerol, 2.0 hr, individual rats", "value": "30.8 ng/mL and 37.4 ng/mL and 94.5 ng/mL"}, {"measurement": "Tmax", "setting": "ID 1.5 mg/animal, 100 µL Glycerol, individual rats", "value": 2.00, "unit": "h"}, {"measurement": "t1/2", "setting": "ID 1.5 mg/animal, 100 µL Glycerol, mean (n = 1)", "value": 1.77, "unit": "h"}, {"measurement": "Plasma concentration", "setting": "ID 1.5 mg/animal, 150 µL Glycerol, 0.25 hr, individual rats", "value": "57.9 ng/mL and 96.3 ng/mL"}, {"measurement": "Plasma concentration", "setting": "ID 1.5 mg/animal, 150 µL Glycerol, 0.5 hr, individual rats", "value": "919 ng/mL and 57.8 ng/mL and 55.9 ng/mL"}, {"measurement": "Plasma concentration", "setting": "ID 1.5 mg/animal, 150 µL Glycerol, 0.83 hr, individual rats", "value": "72.7 ng/mL and 108 ng/mL"}, {"measurement": "Plasma concentration", "setting": "ID 1.5 mg/animal, 150 µL Glycerol, 1.0 hr, individual rats", "value": "60.6 ng/mL and 36.6 ng/mL"}, {"measurement": "Plasma concentration", "setting": "ID 1.5 mg/animal, 150 µL Glycerol, 1.5 hr, individual rats", "value": "46.8 ng/mL and 46.9 ng/mL and 16.0 ng/mL"}, {"measurement": "Plasma concentration", "setting": "ID 1.5 mg/animal, 150 µL Glycerol, 2.0 hr, individual rats", "value": "37.7 ng/mL and 33.4 ng/mL and 16.7 ng/mL"}, {"measurement": "tmax (second line so headed, Table 10)", "setting": "ID 1.5 mg/animal, 150 µL Glycerol, individual rats", "value": 1.16, "unit": "h"}, {"measurement": "half-life", "setting": "male, Sprague-Dawley, rat, in vivo, 1.5 mg, 50 µL PBS, 50 µL blank Capmul MCM L8 -2 hr, individual rats", "value": 0.86, "unit": "h"}, {"measurement": "half-life", "setting": "male, Sprague-Dawley, rat, in vivo, 1.5 mg, 50 µL PBS, 50 µL blank Capmul MCM L8 -2 hr, mean (n = 1)", "value": 0.86, "unit": "h"}, {"measurement": "half-life", "setting": "male, Sprague-Dawley, rat, in vivo, 1.5 mg, 100 µL Glycerol, individual rats", "value": 1.77, "unit": "h"}, {"measurement": "half-life", "setting": "male, Sprague-Dawley, rat, in vivo, 1.5 mg, 100 µL Glycerol, mean (n = 1)", "value": 1.77, "unit": "h"}, {"measurement": "half-life", "setting": "male, Sprague-Dawley, rat, in vivo, 1.5 mg, 150 µL Glycerol, mean (n = 2)", "value": 1.63, "unit": "h"}, {"measurement": "Tmax", "setting": "male, Sprague-Dawley, rat, in vivo, 1.5 mg, tmax (second line so headed, Table 10), ID 1.5 mg/animal, 150 µL Glycerol, individual rats", "value": 2.09, "unit": "h"}, {"measurement": "Tmax", "setting": "male, Sprague-Dawley, rat, in vivo, 1.5 mg, tmax (second line so headed, Table 10), ID 1.5 mg/animal, 150 µL Glycerol, mean", "value": 1.63, "unit": "h"}, {"measurement": "Tmax", "setting": "male, Sprague-Dawley, rat, in vivo, 1.5 mg, tmax, ID 1.5 mg/animal, 50 µL PBS, 50 µL blank Capmul MCM L8 -2 hr, mean", "value": 1, "unit": "h"}, {"measurement": "Tmax", "setting": "male, Sprague-Dawley, rat, in vivo, 1.5 mg, tmax, ID 1.5 mg/animal, 50 µL PBS, 150 µL blank glycerol -2 hr, mean", "value": 0.75, "unit": "h"}]}
